Tests used:
Assay type in all cases: cell-based
Aeromonas hydrophila = assay: MIC against Gram-negative bacteria: Aeromonas hydrophila; settings: for MIC against A. hydrophila / MIC (μg/mL) A. hydrophila: 5×10^5 CFU/mL
Summary of the method: (§1)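 The recombinant human-originated EGF domain proteins were serially diluted two-fold against bacteria at 5×10^5 CFU/mL in LB medium. After shaken incubation at 37° C, the lowest concentration with no bacterial growth was recorded as the MIC.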

E. coli BL21 = assay: MIC against Gram-negative bacteria: E. coli BL21; settings: for MIC against E. coli BL21 / MIC (μg/mL) E. coli BL21: 5×10^5 CFU/mL
Summary of the method: as §1

Citrobacter diversus = assay: MIC against Gram-negative bacteria: Citrobacter diversus; settings: for MIC against C. diversus / MIC (μg/mL) C. diversus: 5×10^5 CFU/mL
Summary of the method: as §1

Proteus vulgaris = assay: MIC against Gram-negative bacteria: Proteus vulgaris; settings: for MIC against P. vulgaris / MIC (μg/mL) P. vulgaris: 5×10^5 CFU/mL
Summary of the method: as §1

Moraxella catarrhalis = assay: MIC against Gram-negative bacteria: Moraxella catarrhalis; settings: for MIC against M. catarrhalis / MIC (μg/mL) M. catarrhalis: 5×10^5 CFU/mL
Summary of the method: as §1

Proteus mirabilis = assay: MIC against Gram-negative bacteria: Proteus mirabilis; settings: for MIC against P. mirabilis / MIC (μg/mL) P. mirabilis: 5×10^5 CFU/mL
Summary of the method: as §1

E. coli DH5α = assay: Antibacterial activity: MIC and growth curve against E. coli DH5α in 96-well plate; settings: minimal inhibitory concentration against E. coli DH5α; 96-well plate, 5×10^5 CFU/mL, 37° C., judged after 8 h
Summary of the method: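 MIC taken as lowest protein level with no bacterial growth, tracked by A600 every 30 min during 37 °C, 175 rpm culture. Two-fold protein series 50-12.5 μg/mL final, triplicate wells, against 5×10^5 CFU/mL of LB-washed mid-log cells.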

Serratia marcescens = assay: MIC against Gram-negative bacteria: Serratia marcescens; settings: for MIC against S. marcescens / MIC (μg/mL) S. marcescens: 5×10^5 CFU/mL
Summary of the method: as §1

Pseudomonas aeruginosa = assay: MIC against Gram-negative bacteria: Pseudomonas aeruginosa; settings: for MIC against P. aeruginosa / MIC (μg/mL) P. aeruginosa: 5×10^5 CFU/mL
Summary of the method: as §1

Enterobacter cloacae = assay: MIC against Gram-negative bacteria: Enterobacter cloacae; settings: for MIC against E. cloacae / MIC (μg/mL) E. cloacae: 5×10^5 CFU/mL
Summary of the method: as §1

Klebsiella pneumonia = assay: MIC against Gram-negative bacteria: Klebsiella pneumonia; settings: for MIC against K. pneumonia / MIC (μg/mL) K. pneumonia: 5×10^5 CFU/mL
Summary of the method: as §1

[1] = E. coli BL21, 10 h cultivation at 37° C.
[2] = Aeromonas hydrophila, 96-well plate, 37° C., 10 h
[3] = E. coli BL21, 96-well plate, 37° C., 10 h
[4] = Citrobacter diversus, 96-well plate, 37° C., 10 h
[5] = Proteus vulgaris, 96-well plate, 37° C., 10 h
[6] = Moraxella catarrhalis, 96-well plate, 37° C., 10 h
[7] = Proteus mirabilis, 96-well plate, 37° C., 10 h
[8] = Serratia marcescens, 96-well plate, 37° C., 10 h
[9] = Pseudomonas aeruginosa, 96-well plate, 37° C., 10 h
[10] = Enterobacter cloacae, 96-well plate, 37° C., 10 h
[11] = Klebsiella pneumonia, 96-well plate, 37° C., 10 h

## PRT1389 (PEEQCIDPTCFGHGTCIMGVCICVPGYKGEICE; listed as Homo sapiens)
Aeromonas hydrophila; Aeromonas hydrophila, 10 h cultivation at 37° C.
  MIC against A. hydrophila: 12.5 µg/mL
E. coli BL21; [1]
  MIC against E. coli BL21: 12.5 µg/mL
Citrobacter diversus; Citrobacter diversus, 10 h cultivation at 37° C.
  MIC against C. diversus: 12.5 µg/mL
Proteus vulgaris; Proteus vulgaris, 10 h cultivation at 37° C.
  MIC against P. vulgaris: 25 µg/mL
Moraxella catarrhalis; Moraxella catarrhalis, 10 h cultivation at 37° C.
  MIC against M. catarrhalis: 12.5 µg/mL
Proteus mirabilis; Proteus mirabilis, 10 h cultivation at 37° C.
  MIC against P. mirabilis: 12.5 µg/mL
E. coli DH5α
  MIC: 25 µg/mL
Serratia marcescens; Serratia marcescens, 10 h cultivation at 37° C.
  MIC against S. marcescens: 12.5 µg/mL
Pseudomonas aeruginosa; Pseudomonas aeruginosa, 10 h cultivation at 37° C.
  MIC against P. aeruginosa: 25 µg/mL
Enterobacter cloacae; Enterobacter cloacae, 10 h cultivation at 37° C.
  MIC against E. cloacae: 25 µg/mL
Klebsiella pneumonia; Klebsiella pneumonia, 10 h cultivation at 37° C.
  MIC against K. pneumonia: 12.5 µg/mL

## PRT78 (KKNVCDSNTCHNGGTCVNQWDAFSCECPLGFGGKSCA; listed as Homo sapiens)
Aeromonas hydrophila; [2]
  MIC (μg/mL) A. hydrophila: 25 µg/mL
E. coli BL21; [3]
  MIC (μg/mL) E. coli BL21: 25 µg/mL
Citrobacter diversus; [4]
  MIC (μg/mL) C. diversus: 50 µg/mL
Proteus vulgaris; [5]
  MIC (μg/mL) P. vulgaris: 50 µg/mL
Moraxella catarrhalis; [6]
  MIC (μg/mL) M. catarrhalis: 50 µg/mL
Proteus mirabilis; [7]
  MIC (μg/mL) P. mirabilis: 50 µg/mL
E. coli DH5α
  MIC: 50 µg/mL
Serratia marcescens; [8]
  MIC (μg/mL) S. marcescens: 12.5 µg/mL
Pseudomonas aeruginosa; [9]
  MIC (μg/mL) P. aeruginosa: 50 µg/mL
Enterobacter cloacae; [10]
  MIC (μg/mL) E. cloacae: 50 µg/mL
Klebsiella pneumonia; [11]
  MIC (μg/mL) K. pneumonia: 25 µg/mL

## PRT941 (EINECSSHPCLNEGTCVDGLGTYRCSCPLGYTGKNCQ; listed as Homo sapiens)
Aeromonas hydrophila; A. hydrophila, 10 h cultivation at 37° C.
  MIC: 50 µg/mL
E. coli BL21; [1]
  MIC: 50 µg/mL
Citrobacter diversus; C. diversus, 10 h cultivation at 37° C.
  MIC: 12.5 µg/mL
Proteus vulgaris; P. vulgaris, 10 h cultivation at 37° C.
  MIC: 50 µg/mL
Moraxella catarrhalis; M. catarrhalis, 10 h cultivation at 37° C.
  MIC: 50 µg/mL
Proteus mirabilis; P. mirabilis, 10 h cultivation at 37° C.
  MIC: 12.5 µg/mL
E. coli DH5α
  MIC: 25 µg/mL
Serratia marcescens; S. marcescens, 10 h cultivation at 37° C.
  MIC: 12.5 µg/mL
Pseudomonas aeruginosa; P. aeruginosa, 10 h cultivation at 37° C.
  MIC: 12.5 µg/mL
Enterobacter cloacae; E. cloacae, 10 h cultivation at 37° C.
  MIC: 12.5 µg/mL
Klebsiella pneumonia; K. pneumonia, 10 h cultivation at 37° C.
  MIC: 50 µg/mL

## PRT552 (CACGPAAEGSECHPQSGQCHCRPGTMGPQCRECAPGYWGLPEQGCRR; listed as Homo sapiens)
Aeromonas hydrophila; 96-well plate, 37° C., 10 h
  MIC against A. hydrophila: 12.5 µg/mL
E. coli BL21; 96-well plate, 37° C., 10 h
  MIC against E. coli BL21: 100 µg/mL
Citrobacter diversus; 96-well plate, 37° C., 10 h
  MIC against C. diversus: 50 µg/mL
Proteus vulgaris; 96-well plate, 37° C., 10 h
  MIC against P. vulgaris: 25 µg/mL
Moraxella catarrhalis; 96-well plate, 37° C., 10 h
  MIC against M. catarrhalis: 25 µg/mL
Proteus mirabilis; 96-well plate, 37° C., 10 h
  MIC against P. mirabilis: 12.5 µg/mL
E. coli DH5α
  MIC: 25 µg/mL
Serratia marcescens; 96-well plate, 37° C., 10 h
  MIC against S. marcescens: 12.5 µg/mL
Pseudomonas aeruginosa; 96-well plate, 37° C., 10 h
  MIC against P. aeruginosa: 50 µg/mL
Enterobacter cloacae; 96-well plate, 37° C., 10 h
  MIC against E. cloacae: 50 µg/mL
Klebsiella pneumonia; 96-well plate, 37° C., 10 h
  MIC against K. pneumonia: 12.5 µg/mL

## PRT20 (QKNLCNNTGDPEMCPENGSCVPDGPGLLQCVCADGFHGYKCM; listed as Homo sapiens)
Aeromonas hydrophila; [2]
  MIC (μg/mL) A. hydrophila: 50 µg/mL
E. coli BL21; [3]
  MIC (μg/mL) E. coli BL21: 25 µg/mL
Citrobacter diversus; [4]
  MIC (μg/mL) C. diversus: 25 µg/mL
Proteus vulgaris; [5]
  MIC (μg/mL) P. vulgaris: 25 µg/mL
Moraxella catarrhalis; [6]
  MIC (μg/mL) M. catarrhalis: 12.5 µg/mL
Proteus mirabilis; [7]
  MIC (μg/mL) P. mirabilis: 50 µg/mL
E. coli DH5α
  MIC: 12.5 µg/mL
Serratia marcescens; [8]
  MIC (μg/mL) S. marcescens: 12.5 µg/mL
Pseudomonas aeruginosa; [9]
  MIC (μg/mL) P. aeruginosa: 50 µg/mL
Enterobacter cloacae; [10]
  MIC (μg/mL) E. cloacae: 12.5 µg/mL
Klebsiella pneumonia; [11]
  MIC (μg/mL) K. pneumonia: 25 µg/mL

## PRT541 (CSCDLRGTLGGVAECQPGTGQCFCKPHVCGQACASCKDGFFGLDQADYFGCRS; listed as Homo sapiens)
Aeromonas hydrophila; 96-well plate, 37° C., 10 h
  MIC against A. hydrophila: 50 µg/mL
E. coli BL21; 96-well plate, 37° C., 10 h
  MIC against E. coli BL21: 50 µg/mL
Citrobacter diversus; 96-well plate, 37° C., 10 h
  MIC against C. diversus: 12.5 µg/mL
Proteus vulgaris; 96-well plate, 37° C., 10 h
  MIC against P. vulgaris: 25 µg/mL
Moraxella catarrhalis; 96-well plate, 37° C., 10 h
  MIC against M. catarrhalis: 50 µg/mL
Proteus mirabilis; 96-well plate, 37° C., 10 h
  MIC against P. mirabilis: 12.5 µg/mL
E. coli DH5α
  MIC: 12.5 µg/mL
Serratia marcescens; 96-well plate, 37° C., 10 h
  MIC against S. marcescens: 50 µg/mL
Pseudomonas aeruginosa; 96-well plate, 37° C., 10 h
  MIC against P. aeruginosa: 100 µg/mL
Enterobacter cloacae; 96-well plate, 37° C., 10 h
  MIC against E. cloacae: 12.5 µg/mL
Klebsiella pneumonia; 96-well plate, 37° C., 10 h
  MIC against K. pneumonia: 50 µg/mL

## PRT1333 (PIPECAALLCPENSRCSPSTEDENKLECKCLPNYRGDGKYCD; listed as Homo sapiens)
Aeromonas hydrophila; [2]
  MIC against A. hydrophila: 25 µg/mL
E. coli BL21; [3]
  MIC against E. coli BL21: 12.5 µg/mL
Citrobacter diversus; [4]
  MIC against C. diversus: 12.5 µg/mL
Proteus vulgaris; [5]
  MIC against P. vulgaris: 25 µg/mL
Moraxella catarrhalis; [6]
  MIC against M. catarrhalis: 25 µg/mL
Proteus mirabilis; [7]
  MIC against P. mirabilis: 12.5 µg/mL
E. coli DH5α
  MIC: 25 µg/mL
Serratia marcescens; [8]
  MIC against S. marcescens: 12.5 µg/mL
Pseudomonas aeruginosa; [9]
  MIC against P. aeruginosa: 25 µg/mL
Enterobacter cloacae; [10]
  MIC against E. cloacae: 12.5 µg/mL
Klebsiella pneumonia; [11]
  MIC against K. pneumonia: 25 µg/mL
